Measured values from US4401660A, “Ester derivatives of 5-O-mycaminosyl tylonolide and method of using same” (Eli Lilly and Company, priority 1981, dated 1983).
Like-named read-outs stand apart in the source and are kept apart here.

How the values were obtained:
[1] = system: Pasteurella multocida; test: Treatment of Pasteurella infections in chicks (Table V); format: in vivo, one-day-old chicks; settings: Pasteurella multocida, sc, 4 h; 30 mg/kg by subcutaneous injection one and four hours post challenge; read-out: Deaths in Treated Chicks/Number Treated (converted)
Outline: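 One-day-old chicks challenged subcutaneously with avian P. multocida (0.1 ml of 10^-3 dilution of 20-hour tryptose broth culture). Esters given at 30 mg/kg subcutaneously at 1 and 4 hours post challenge. Untreated infected controls, ten per group.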

[2] = system: Pasteurella haemolytica 22C; test: MIC, broth-dilution microtiter test (Table III); format: cell-based; design: unit not given here
Method: (§1) The MIC's in Table II were determined by standard agar-dilution assays. The MIC's in Table III were obtained using a conventional broth-dilution microtiter test.

[3] = system: Pasteurella haemolytica 23C; test: MIC, broth-dilution microtiter test (Table III); format: cell-based; design: unit not given here
Method: as §1

[4] = system: Streptococcus sp. 80; test: MIC, broth-dilution microtiter test (Table III); format: cell-based; design: unit not given here
Method: as §1

[5] = system: Pasteurella multocida 17E; test: MIC, broth-dilution microtiter test (Table III); format: cell-based; design: unit not given here; settings: bovine isolate
Method: as §1

[6] = system: Mycoplasma gallisepticum; test: MIC, broth-dilution microtiter test (Table III); format: cell-based; design: unit not given here
Method: as §1

[7] = system: Pasteurella multocida 60A; test: MIC, broth-dilution microtiter test (Table III); format: cell-based; design: unit not given here; settings: avian isolate
Method: as §1

[8] = system: Pasteurella multocida 40G; test: MIC, broth-dilution microtiter test (Table III); format: cell-based; design: unit not given here
Method: as §1

[9] = system: Pasteurella haemolytica 41D; test: MIC, broth-dilution microtiter test (Table III); format: cell-based; design: unit not given here
Method: as §1

[10] = system: Staphylococcus aureus; test: MIC, broth-dilution microtiter test (Table III); format: cell-based; design: unit not given here
Method: as §1

[11] = system: Pasteurella multocida 22A; test: MIC, broth-dilution microtiter test (Table III); format: cell-based; design: unit not given here
Method: as §1

[12] = system: Pasteurella multocida 68C; test: MIC, broth-dilution microtiter test (Table III); format: cell-based; design: unit not given here
Method: as §1

[13] = system: Mycoplasma hyorhinis; test: MIC, broth-dilution microtiter test (Table III); format: cell-based; design: unit not given here
Method: as §1

[14] = system: Mycoplasma synoviae; test: MIC, broth-dilution microtiter test (Table III); format: cell-based; design: unit not given here
Method: as §1

[15] = system: Streptococcus pyogenes C203; test: ED50 in mice with experimental infections (Table IV); format: in vivo; settings: Streptococcus pyogenes, doses given 1 and 4 hours postinfection
Outline: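 Mice with experimental infections received test compound twice, at 1 and 4 h postinfection. ED50 is the dose in mg/kg (per administration, ×2) protecting 50% of animals.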

[16] = system: Haemophilus influenzae R252; test: MIC, standard agar-dilution assay (Table II); format: cell-based; design: unit not given here; settings: Haemophilus influenzae R252, ampicillin-resistant strain
Method: as §1

[17] = system: Staphylococcus aureus X400; test: MIC, standard agar-dilution assay (Table II); format: cell-based; design: unit not given here; settings: Staphylococcus aureus X400, methicillin-resistant strain
Method: as §1

[18] = system: Staphylococcus aureus V41; test: MIC, standard agar-dilution assay (Table II); format: cell-based; design: unit not given here; settings: Staphylococcus aureus V41, penicillin-resistant strain
Method: as §1

[19] = system: Streptococcus pyogenes C203; test: MIC, standard agar-dilution assay (Table II); format: cell-based; design: unit not given here
Method: as §1

[20] = system: Streptococcus Group D X66; test: MIC, standard agar-dilution assay (Table II); format: cell-based; design: unit not given here
Method: as §1

[21] = system: Streptococcus Group D 9960; test: MIC, standard agar-dilution assay (Table II); format: cell-based; design: unit not given here
Method: as §1

[22] = system: Staphylococcus aureus S13E; test: MIC, standard agar-dilution assay (Table II); format: cell-based; design: unit not given here
Method: as §1

[23] = system: Staphylococcus aureus X1.1; test: MIC, standard agar-dilution assay (Table II); format: cell-based; design: unit not given here
Method: as §1

[24] = system: Staphylococcus epidermidis EPI2; test: MIC, standard agar-dilution assay (Table II); format: cell-based; design: unit not given here
Method: as §1

[25] = system: Streptococcus pneumoniae Park I; test: MIC, standard agar-dilution assay (Table II); format: cell-based; design: unit not given here
Method: as §1

[26] = system: Staphylococcus epidermidis EPI1; test: MIC, standard agar-dilution assay (Table II); format: cell-based; design: unit not given here
Method: as §1

[27] = system: Haemophilus influenzae Holt; test: MIC, standard agar-dilution assay (Table II); format: cell-based; design: unit not given here; settings: ampicillin-sensitive strain
Method: as §1

[28] = C203, oral, read-out: ED50, Oral
[29] = C203, sc, subcutaneous, read-out: ED50, Subcutaneous

SMILES	mortality at 30 mg/kg [1] [%]	minimal inhibitory concentration (MIC) [2]	minimal inhibitory concentration (MIC) [3]	minimal inhibitory concentration (MIC) [4]	minimal inhibitory concentration (MIC) [5]	minimal inhibitory concentration (MIC) [6]	minimal inhibitory concentration (MIC) [7]	minimal inhibitory concentration (MIC) [8]	minimal inhibitory concentration (MIC) [9]	minimal inhibitory concentration (MIC) [10]	minimal inhibitory concentration (MIC) [11]	minimal inhibitory concentration (MIC) [12]	minimal inhibitory concentration (MIC) [13]	minimal inhibitory concentration (MIC) [14]	ED50 [15, 28] [mg/kg]	ED50 [15, 29] [mg/kg]	minimal inhibitory concentration (MIC) [16]	minimal inhibitory concentration (MIC) [17]	minimal inhibitory concentration (MIC) [18]	minimal inhibitory concentration (MIC) [19]	also measured
CCC1OC(=O)CC(O)C(C)C(OC2OC(C)C(OC(C)=O)C(N(C)C)C2OC(C)=O)C(CC=O)CC(C)C(=O)C=CC(C)=CC1COC(=O)Cc1ccccc1 (centres unmarked) [Compound 27, 2',4'-Di-O-acetyl-23-O-phenylacetyl-OMT]	90	3.12	3.12	0.05	1.56	0.05	0.78	3.12	3.12	0.097	3.12	1.56	0.097	0.05	159	> 30	1	0.25	0.25	0.06	minimal inhibitory concentration (MIC) [20]: 0.125; minimal inhibitory concentration (MIC) [21]: 0.125; minimal inhibitory concentration (MIC) [22]: 0.25; minimal inhibitory concentration (MIC) [23]: 0.25; minimal inhibitory concentration (MIC) [24]: 0.25; minimal inhibitory concentration (MIC) [25]: 0.03; minimal inhibitory concentration (MIC) [26]: 0.25; minimal inhibitory concentration (MIC) [27]: 1
CCC1OC(=O)CC(O)C(C)C(OC2OC(C)C(O)C(N(C)C)C2OC(C)=O)C(CC=O)CC(C)C(=O)C=CC(C)=CC1COC(=O)C=Cc1ccccc1 (centres unmarked) [Compound 33]	80	12.5	12.5	0.39	3.12	0.05	3.12	3.12	12.5	0.39	3.12	3.12	0.78	0.39	146	9.7	4	0.5	0.5	0.25	minimal inhibitory concentration (MIC) [20]: 1; minimal inhibitory concentration (MIC) [21]: 1; minimal inhibitory concentration (MIC) [22]: 0.5; minimal inhibitory concentration (MIC) [23]: 0.5; minimal inhibitory concentration (MIC) [24]: 0.5; minimal inhibitory concentration (MIC) [25]: 0.125; minimal inhibitory concentration (MIC) [26]: 0.5; minimal inhibitory concentration (MIC) [27]: 4
